Assay results reported in paper PMC8541911 (Molecular cell, 2021).

Legend:
Type in all cases: cell-based
[1] = target: mouse μOR receptor (Flag-μOR-2x) (Mus musculus, UniProt P42866, M72T); experiment: G protein activation assay; details: Gi1-2-3 and Goa-b activation, HEK293 cells
μ-opioid receptor (μOR) = test system: μ-opioid receptor (μOR)
[2] = target: T1, human μOR receptor fused to YFP (Homo sapiens, UniProt P35372)
[3] = target: T1, human μOR receptor fused to YFP; remark: listed apart in the source
SNAP-μOR receptor = SNAP-μOR receptor (Homo sapiens, UniProt P35372)
Sequence of SNAP-μOR receptor (P35372 whole entry): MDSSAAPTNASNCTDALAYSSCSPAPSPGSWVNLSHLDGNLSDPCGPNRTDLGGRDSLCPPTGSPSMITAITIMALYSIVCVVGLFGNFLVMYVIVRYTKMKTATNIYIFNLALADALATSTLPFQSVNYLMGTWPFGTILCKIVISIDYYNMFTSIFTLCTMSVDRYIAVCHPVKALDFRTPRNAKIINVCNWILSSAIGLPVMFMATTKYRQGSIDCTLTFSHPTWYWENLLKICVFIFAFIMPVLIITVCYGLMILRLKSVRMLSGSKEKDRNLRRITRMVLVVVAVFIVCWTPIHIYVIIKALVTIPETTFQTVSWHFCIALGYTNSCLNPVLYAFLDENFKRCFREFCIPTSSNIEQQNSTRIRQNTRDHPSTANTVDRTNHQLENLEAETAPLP

T1 sequence (P35372 whole entry, the tested form may be a part): as the sequence (P35372 whole entry) above
Sequence of mouse μOR receptor (Flag-μOR-2x) (P42866 whole entry M72T): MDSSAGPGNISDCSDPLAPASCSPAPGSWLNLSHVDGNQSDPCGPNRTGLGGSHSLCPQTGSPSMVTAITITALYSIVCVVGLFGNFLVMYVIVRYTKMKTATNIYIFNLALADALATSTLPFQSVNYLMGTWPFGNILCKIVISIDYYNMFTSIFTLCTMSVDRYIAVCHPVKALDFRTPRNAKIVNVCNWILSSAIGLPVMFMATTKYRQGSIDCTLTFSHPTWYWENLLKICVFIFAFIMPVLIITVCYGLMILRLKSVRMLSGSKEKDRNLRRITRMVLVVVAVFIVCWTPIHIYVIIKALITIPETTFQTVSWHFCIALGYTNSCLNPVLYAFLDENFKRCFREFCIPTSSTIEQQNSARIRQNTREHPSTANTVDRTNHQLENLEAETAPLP

| Compound | Agonist behaviour in G protein assays [1] | Classification of agonism and bias (μ-opioid receptor (μOR)) | Recruitment of GRK2/5 (response) [2] | Recruitment of β-arrestin-1/2 (response) [3] | μOR internalization (response) (SNAP-μOR receptor) |
| --- | --- | --- | --- | --- | --- |
| C[C@@H](Cc1ccsc1)NC(=O)NC[C@H](Cc1ccc(O)cc1)N(C)C [PZM21] | full agonists | G protein-biased full agonists |  |  |  |
| COc1ccsc1CNCC[C@@]1(c2ccccn2)CCOC2(CCCC2)C1 [oliceridine] | full agonists | G protein-biased full agonists | nearly no response | nearly no response | nearly no response |
| [D-Ala^2, N-Me-Phe^4, Gly^5-ol]-Enkephalin acetate salt [DAMGO] |  | unbiased full agonists |  |  |  |
